Test results as given in patent publication US20080194608A1, “6-Phenylhex-5-Enoic Acid Derivatives, Process for the Preparation Thereof, Pharmaceutical Compositions Comprising Them, and Therapeutic Uses Thereof” (priority 2005, published 2008).

Molecular target: T1, chimeric protein PPARγ-Gal4 (Homo sapiens, UniProt P37231)
T1 construct: expressed in transfected cells; host or cells: CV-1 cells (monkey kidney cells)
T1 sequence (P37231 238-503 limits assumed): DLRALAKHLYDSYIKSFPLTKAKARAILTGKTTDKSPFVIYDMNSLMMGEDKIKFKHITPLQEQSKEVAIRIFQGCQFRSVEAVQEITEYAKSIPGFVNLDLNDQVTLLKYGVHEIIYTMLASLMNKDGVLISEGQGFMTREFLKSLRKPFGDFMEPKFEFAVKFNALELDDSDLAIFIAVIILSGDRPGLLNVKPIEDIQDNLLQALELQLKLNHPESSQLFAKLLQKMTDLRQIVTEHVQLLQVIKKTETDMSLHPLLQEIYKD
Experiment: PPARγ-Gal4 transactivation (luciferase reporter) test in CV-1 cells
Format: cell-based
Protocol: The measurement of the PPAR activation was performed according to a technique described by Lehmann et al. (J. Biol. Chem., 270, (1995), 12953-12956).
CV-1 cells (monkey kidney cells) are cotransfected with an expression vector for the chimeric protein PPARγ-Gal4 and with a “reporter” plasmid that allows expression of the luciferase gene placed under the control of a promoter comprising Gal4 response elements.
The cells are seeded in 96-well microplates and cotransfected using a commercial reagent with the reporter plasmid (pG5-tk-pGL3) and the expression vector for the chimeric protein (PPARγ-Gal4). After incubation for 4 hours, whole culture medium (comprising 10% foetal calf serum) is added to the wells. After 24 hours, the medium is removed and replaced with whole medium comprising the test products. The products are left in contact with the cells for 18 hours. The cells are then lysed and the luciferase activity is measured using a luminometer. A PPARγ activation factor can then be calculated by means of the activation of the expression of the reporter gene induced by the product (relative to the control cells that have received no product).
In the absence of the PPARγ ligand binding domain (vector expressing Gal4 alone), the luciferase activity measured in the presence of an agonist is zero.
The following transactivation result was obtained with a concentration of 10 μM on PPARγ.
The transactivation test using the expression of a chimeric protein Gal-4-PPARγ makes it possible to determine also whether an agonist functions as a “full” agonist or as a “partial” agonist in this system.
An agonist is “partial” in this system if it induces a weaker response, i.e. it has lower efficacy, than rosiglitazone, which is a “full” agonist. In concrete terms, in our system, the transactivation obtained at the plateau with a partial agonist will be between 20% and 50% of the maximum response (efficacy) at the plateau of rosiglitazone.

| SMILES | Activation factor of the chimeric protein PPARγ-Gal4 (10 μM, CV-1 cells (monkey kidney cells), 18 hours contact, relative to control cells without agonist (=1)) | Concentration to reach the maximum stimulation of the PPARγ chimeric protein (CV-1 cells, Gal-4-PPARγ transactivation test) [µM] | Emax (transactivation at the plateau relative to maximum response (efficacy) of rosiglitazone, CV-1 cells, read-out: Maximum stimulation of the PPARγ chimeric protein obtained with rosiglitazone) [%] |
| --- | --- | --- | --- |
| COc1ccccc1OC(CCC=Cc1cc(F)ccc1OCCc1nc(-c2ccccc2)oc1C)C(=O)O (stereo not drawn) [Example 44, 6-{5-fluoro-2-[2-(5-methyl-2-phenyloxazol-4-yl)ethoxy]phenyl}-2-(2-methoxyphenoxy)hex-5-enoic acid] | 5.8 |  |  |
| CCc1ccc(CCOc2ccc(F)cc2C=CCCC(Oc2ccc(C(F)(F)F)cc2)C(=O)O)nc1 (stereo not drawn) [Example 51, 6-{2-[2-(5-ethylpyridin-2-yl)ethoxy]-5-fluorophenyl)-2-(4-trifluoromethyl-phenoxy)hex-5-enoic acid] |  | 10 | 19 |
